# Test results reported in patent US7759367B2, “Pharmaceutical compositions and their uses” (Eisai R&D Management Co., Ltd., priority 2001, dated 2010).
# How the values were obtained:
# Lewis rats = assay: Acute EAE in Lewis rats: Example 7 alone and combined with interferon-β (In Vivo Example 1); conditions: Lewis rat acute EAE, Example 7 10 mg/kg p.o., interferon-β 1×10^6 Units/rat s.c., once daily 7-16 dpi
# Method: Female Lewis rats (200+10 g) obtained from Charles River, Kent, UK, were housed in pairs under environmentally controlled conditions (6:00 a.m.-6:00 p.m. light/dark cycle; 22-24° C.; 45-55% humidity) and allowed free access to food and water. Experimental groups consisted of 8 animals.
# Rats were immunised in each hind foot with 15 μl of inoculum containing […] guinea pig myelin basic protein (MBP, prepared by the method of Dunkley and Carnegie (1974); final concentration 2 mg/ml), emulsified in Freund's complete adjuvant (CFA; Sigma, UK) containing Mycobacterium tuberculosis H37Ra (final concentration 5.5 mg/ml; Difco Laboratories, UK).
# Animals were weighed and monitored daily and clinical disease scored as (0) no clinical signs; (1) flaccid tail and weight loss; (2) hind limb hypotonia with further weight loss; (3) complete hind limb paralysis; (4) paraplegia and (5) death. […] During the period of compound administration (7-16 days post immunisation; dpi) animals were scored 15 h after injection of vehicle, compound of example 7 or interferon-β to avoid any acute effect of treatment on disease score.
# 3-(2-Cyanophenyl)-1-phenyl-5-(2-pyridyl)-1,2-dihydropyridin-2-one; (example 7) was suspended in 0.5% methyl cellulose (MC) solution to obtain a compound concentration of 4 mg/ml. Interferon-β was dissolved in PBS to obtain a compound concentration of 5×10^6 Units/ml. Rats were dosed once daily (9 a.m.) on days 7 to 16 post immunisation with either vehicle (methyl cellulose p.o. and PBS s.c.), the compound alone in the dose of 10 mg/kg (p.o. plus vehicle PBS s.c), interferon-β alone in the dose of 1×10^6 Units/rat (s.c. plus methyl cellulose p.o.) or example 7 in the dose of 10 mg/kg (p.o) combined with interferon-β in the dose of 1×10^6 Units/rat (s.c.).
# male mice of ddy strain = assay: Anticonvulsant action induced by AMPA (Test Example 2); type: in vivo; conditions: 25 mg/kg orally, AMPA 2 nmole/5 μl/minute/mouse into lateral ventricle 30 minutes or 1 hour after dosing
# Method: A test compound was suspended in a 0.5% methyl cellulose solution or in sesame oil and was orally administered (25 mg/kg) to male mice of ddy strain. After 30 minutes or 1 hour from the oral administration, AMPA was continuously injected (2 nmole/5 μl/minute/mouse) into lateral ventricle to induce the convulsions. The effect was judged by a time-extending action until the convulsion takes place by a continuous injection of AMPA.
# Female Lewis rats = assay: Experimental autoimmune encephalomyelitis model (Test Example 10); type: in vivo, rat; conditions: p.o. 5, 10 and 20 mg/kg, 10-16 dpi
# Method: Female Lewis rats (205±10 g) obtained from Charles River, Kent UK, were housed in pairs under environmentally controlled conditions (6:00a.m.-6:00p.m. light/dark cycle; 22-24° C.; 45-55% humidity) and allowed free access to food and water. Experimental groups consisted of 9-12 animals. Rats were immunised in each hind foot with 20-50 μl of inoculum containing 50 μg guinea pig myelin basic protein (MBP; final concentration 2 mg/ml), emulsified in Freund's complete adjuvant (CFA; Sigma, UK) containing Mycobacterium tuberculosis H37Ra (final concentration 5.5 mg/ml; Difco Laboratories, UK). Animals were weighed and monitored daily and clinical disease scored as (0) no clinical signs; (1) flaccid tail and weight loss; (2) hind limb hypotonia with further weight loss; (3) complete hind limb paralysis; (4) paraplegia and (5) death. […] During the period of compound administration (10-16 days post immunisation; dpi) animals were scored 15 h after injection of vehicle or compound to avoid any acute effect of treatment on disease score. Compounds were dissolved/suspended in 0.5% methyl cellulose using a hand held Polytron homogeniser (PT1200; 2 min). Rats were dosed p.o. with either methyl cellulose vehicle (2.5 ml/kg) or compound at 5, 10 and 20 mg/kg.
# AMPA receptor = conditions: primary culture of rat embryo cerebral cortex nerve cells; Fura2-AM; 2 μM AMPA; 1 μM MK-801;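 further: neurons cultured at least 8 to 10 days atop an astrocyte layer in 96-well plates, calcium entry read as the change in Fura2 fluorescence ratio at 340/380 nm excitation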
# Method: Cerebral cortex was cut out from the brain of rat of gestational 18 days and treated with trypsin and DNase to disperse the cells. The cells were flown by MEM containing 10% of serum, sown in a culture bottle and astrocytes were proliferated. The astrocytes were re-dispersed by trypsin and sown in a 96-well plate. After incubation for one week, it was confirmed that the astrocytes covered all over the bottom and then the nerve cells of cerebral cortex which was dispersed by the above method were sown thereupon. After incubation for 24 hours, the medium was changed, the incubation was carried out for one week and, after that, the medium was changed to that containing 1 μM of MK-801. Nerve cells which were incubated for not shorter than 8 to 10 days were used.
# Calcium influx into the cells was measured using Fura2-AM which was a calcium-sensitive fluorescent dye. It was treated in a medium containing Fura2-AM for 1 hour, incorporated into the cells, exchanged to a Tyrode solution containing 1 μM MK-801 and stimulation was carried out using 2 μM AMPA. Change in the amount of calcium flown into the cells were measured as the change in the fluorescent intensity at the exciting wave length of 340/380 nm.
structure (smiles),measurement,setting,value
"N#Cc1ccccc1-c1cc(-c2ccccn2)cn(-c2ccccc2)c1=O [Example 7, 3-(2-Cyanophenyl)-1-phenyl-5-(2-pyridyl)-1,2-dihydropyridin-2-one]",Duration (days),"Lewis rats; mean and range, n=8",3.0 (0-4) days
same,Onset (d.p.i.),"Lewis rats; mean and range, n=8 (n=1 for the combination)",11.8 (11-15) d.p.i.
same,"Effect on disease progression (paralysis, disease score, onset, duration) during EAE, in words",Lewis rats; n=8/group,"significantly delayed disease onset, shortened disease duration and reduced peak and cumulative disease score"
same,Peak Disease Score,"Lewis rats; clinical score 0-5, mean and range, n=8",1.8 (0-3)
same,Cumulative Disease Score,"Lewis rats; summation of individual daily disease scores, mean and range, n=8",4.8 (0-10)
same,Weight Loss (%),"Lewis rats; weight on 18 dpi as percent of maximum weight before disease onset, mean and range, n=8",17 (10-23) %
same,Anticonvulsant action (time-extending action until convulsion by continuous AMPA injection),male mice of ddy strain,significant anticonvulsant action
same,Effect on EAE vs vehicle-administered group,Female Lewis rats,superior effect to the vehicle-administered group
same,IC50,AMPA receptor,100 nM
